Data reported in PMC6099540 (2018).

system: c-KIT 1 (DNA, G4) AGGGAGGGCGCTGGGAGGAGGG; test: CD melting at 265 nm; conditions: 10 mM KCl, 90 mM LiCl; 10 mM Tris-HCl, pH 7.2; 2 µM DNA, 3 eq ligand; 1 °C/min

| ΔTm [°C] | SMILES |
| --- | --- |
| 8.4 | CC[n+]1c(/C=C/c2ccc3c(c2)c2ccccc2n3CCCCn2ccnc2)sc2ccccc21 |
| 5.4 | CC[n+]1c(/C=C/c2ccc3c(c2)c2ccccc2n3CCCCn2cncn2)sc2ccccc21 |
| 5.9 | CCn1c2ccccc2c2cc(/C=C/c3sc4ccccc4[n+]3CC)ccc21 |
